In patent publication US20230129036A1, “AVENANTHRAMIDE COMPOSITIONS WITH IMPROVED SOLUBILITY COMPRISING 4-HYDROXYPHENONE” (priority 2020, published 2023):

Key:
[1] = Solubility / appearance of avenanthramide solutions with and without 4-hydroxyacetophenone, evaluated at 22° C.; format: physicochemical
Experimental: The solubility of avenanthramides A, B, C, D or L and Dihydroavenanthramide D in solution in combination with 4-hydroxyacetophenone in different concentrations was evaluated against a solution of avenanthram ides A, B, C, D and L without 4-hydroxyacetophenone.
The corresponding avenanthramides were presolved in ethanol or glycol. Water and 4-hydroxyacetophenone were added under stirring and heating up the solution to 60° C. The appearance of the solutions was evaluated at 22° C. according to the following Table 1: […]

[2] = Avn C, followed by Avn B and Avn A; cited from earlier work
[3] = addition of 4-hydroxyacetophenone in concentration of 0.1 or 0.5 wt % (Table 3, Table 4 b)

Structure (SMILES): O=C(C=Cc1ccc(O)cc1)Nc1ccc(O)cc1C(=O)O [Avenanthramide A, N-(4′-hydroxycinnamoyl)-5-hydroxyanthranilic acid]
- Effect of 4-hydroxyacetophenone on solubility ([1]; 4-hydroxyacetophenone 0.01 wt %): improves the solubility
- Appearance of solution [1, 3]: clear solutions without turbidity or precipitation

Structure (SMILES): O=C(C=Cc1ccc(O)c(O)c1)Nc1ccc(O)cc1C(=O)O [Avenanthramide C, N-(3′-4′-dihydroxycinnamoyl)-5-hydroxyanthranilic acid]
- Antioxidant activity, ranking among Avns [2]: highest activity

Structure (SMILES): O=C(/C=C/C=C/c1ccc(O)cc1)Nc1ccc(O)cc1C(=O)O [Avenanthramide L]
- Appearance of solution ([1]; 4-hydroxyacetophenone concentration increased to 0.5% as in Table 4 b): clear solution
- Appearance of solution [1, 3]: clear solutions without turbidity or precipitation
- Effect of addition of 4-hydroxyacetophenone on solubility / appearance ([1]; versus solution without 4-hydroxyacetophenone, increasing concentration): improved

Structure (SMILES): O=C(CCc1ccc(O)cc1)Nc1ccccc1C(=O)O [Dihydroavenanthramide D, 2-[(3-(4-hydroxyphenyl)propanoyl]amido)benzoic acid]
- Appearance of solution ([1]; addition of 4-hydroxyacetophenone in concentrations of 0.5 to 1.0% (Tables 7 a and 7 b)): clear solutions withouts turbidity or precipitation
